Data from patent publication US8859615B2, “Compounds, compositions and methods for reducing toxicity and treating or preventing diseases” (priority 2008, dated 2014).
Where two headings read alike, the source gives them in different places.

Columns and labels:
[1] = test system: AKR1C2 and AKR1C3 in human neuroblastoma IMR-32 cells; experiment: Induction of AKR1C enzymes, coumberone metabolism (Tables 12, 13); settings: for Fold induction of AKR1C2 and AKR1C3 in IMR-32 cells (result in words): inducer varied from 50 nM to 60 μM; for EC50: IMR-32, read-out: EC50 of induction of AKR1C2 and AKR1C3 in IMR-32 cells
Method: (§1) Compounds were screened for AKR1C enzyme activity as set forth in Halim, M.; Yee, D. J. and Sames, D. J. Am. Chem. Soc. 2008, […], 14123-14128. […] Specifically, coumberone metabolism studies in IMR-32 can be done as follows: Early-passage (<P25) IMR-32 cells were seeded at a density of 4×10^4 cells/well in 96-well dish. They were then treated with the various inducers or DMSO vehicle (0.5% v/v) control. The concentration of each inducer was varied from 50 nM to 60 μM and the cells were incubated with these for either 24 or 48 hours. 72 hours after seeding, the media was removed and 100 μL of experimental media (DMEM without phenol red supplemented with 100 units/ml penicillin, 100 μg/ml streptomycin, 4 mM L-glutamine and 1% charcoal-dextran treated FBS) was added and incubated for 2 hrs. 100 μl more of the experimental media containing Coumberone (final concentration of 5 μM) was then added. The fluorescence of the cell culture medium was recorded on a plate reader MicroMax 384 connected to a Jobin Yvon Fluorolog by detecting fluorescence at 510 nm upon excitation at 385 nm. The reading was taken every 6 hours for 72 hours. Metabolic conversion rate was obtained by measuring the change in fluorescence per hour for the first 36 hours. The relative increase in metabolic rate was calculated by dividing the metabolic conversion rates of cells incubated with the activator compounds with those incubated with DMSO vehicle. […] Fold-induction is the increase metabolic activity of the reporter. […] “None” indicates no observed induction.
The IMR-32 induction assay was run as follows. Early-passage (<P25) IMR-32 cells were seeded at a density of 4×10^4 cells/well in 96-well dish. They were then treated with the various inducers or DMSO vehicle (0.5% v/v) control. The concentration of each inducer was varied from 50 nM to 60 μM and the cells were incubated with these for either 24 or 48 hours. 72 hours after seeding, the media was removed and 100 μL of experimental media (DMEM without phenol red supplemented with 100 units/ml penicillin, 100 μg/ml streptomycin, 4 mM L-glutamine and 1% charcoal-dextran treated FBS) was added and incubated for 2 hrs. 100 μl more of the experimental media containing Coumberone (final concentration of 5 μM) was then added. The fluorescence of the cell culture medium was recorded on a plate reader MicroMax 384 connected to a Jobin Yvon Fluorolog by detecting fluorescence at 510 nm upon excitation at 385 nm. The reading was taken every 6 hours for 72 hours. Metabolic conversion rate was obtained by measuring the change in fluorescence per hour for the first 36 hours. The relative increase in metabolic rate was calculated by dividing the metabolic conversion rates of cells incubated with the activator compounds with those incubated with DMSO vehicle. […] J. Am. Chem. Soc. 2008, 130, 14123-[…].

[2] = test system: CCRF-CEM human T-cell acute lymphoblastic leukemia cells; experiment: In vitro cytotoxicity against CCRF-CEM (XTT / CCK-8 tetrazolium assay, 72 hr); settings: Homo sapiens, CCRF-CEM, read-out: IC50 (μM) CCRF-CEM
Method: The cytotoxicity IC50 of each compound was measured with the XTT assay using the 2,3-bis(2-methoxy-4-nitro-5-sulfophenyl)-5-[(phenylamino)carbonyl]-2H-tetrazolium hydroxide (XTT) microculture method as described in Scudiero et al., Cancer Res., 48:4827 (1988), the contents of which are hereby incorporated by reference in their entirety. The CCK-8 assay is a cell counting kit-8 (CCK-8) tetrazolium assay using a 96-well microplate (Dojindo Molecular Technologies, Inc., Rockville, Md.) (M. Ishiyama et al., Biol. Pharm. Bull. 19: 1518, 1996). Absorbance was measured by Powerwave a XS microplate spectrophotometer. This method described is considered a general method in vitro cytotoxicity studies.
The data in Tables 2X, 3A-E, 4, 5, and 6 were obtained using the cell counting kit-8 (CCK-8) tetrazolium assay in a 96-well microplate. Five to seven concentrations of each compound in triplicate were used, and the IC50 values were determined by CompuSyn software automation (Chou T C. and Martin N. ComboSyn, Inc., 2006) based on the median-effect equation and plot (Chou T C. J. Theor. Biol. 59:235-276, 1976; Chou T C. Pharmacol. Rev. 58: 621-681, 2006). […] The r value defines the correlation coefficient of the median-effect plot which signifies the conformity to the mass-action law principle (Chou T C. J. Theor. Biol. 59:235-276, 1976; Chou T C. Pharmacol. Rev. 58:621-681, 2006). These parameters were determined by CompuSyn simulation (available at http://www.combosyn.com).
CCRF-CEM human T-cell acute lymphoblastic leukemia cells and the corresponding vinblastine-resistant cells (CCRF-CEM/VBL100) were cultured at an initial density of 5×10^4 cells per milliliter. The cultured cells were maintained in a 5% CO2-humidified atmosphere at 37° C. in RPMI medium 1640 (GIBCO/BRL) containing penicillin (100 units/mL), streptomycin (100 μg/mL, GIBCO/BRL), and 10% heat-inactivated fetal bovine serum. The cytotoxicity of each Compound of the invention was measured using the 2,3-bis(2-methoxy-4-nitro-5-sulfophenyl)-5-[(phenylamino)carbonyl]-2H-tetrazolium hydroxide (XTT) microculture method as described in Scudiero et al., Cancer Res., 48:4827 (1988), the contents of which are hereby incorporated by reference in their entirety.
Absorbance was measured by Powerwave XS microplate spectrophotometer.

[3] = test system: human neuroblastoma IMR-32 cells; experiment: 50% toxicity in the IMR-32 induction assay (Table 12); assay type: cell-based
Method: as §1

[4] = Homo sapiens, IMR-32, read-out: 50% toxicity in IMR-32 cells
[5] = Homo sapiens, IMR-32, sub-head printed inside Table 13 r22; read-out: IC50 (μM) IMR-32
[6] = Homo sapiens, IMR-32; read-out: 50% toxicity in IMR-32 cells
[7] = Homo sapiens, IMR-32, read-out: Fold induction of AKR1C2 and AKR1C3 in IMR-32 cells

SMILES | Fold induction of AKR1C2 and AKR1C3 in IMR-32 cells (result in words) [1] | IC50 [3, 6] [µM] | other results
C=CC(=O)C#CC#CC[C@H]1OC(C)(C)O[C@@H]1CCCCCCC [Compound 6] | None |  | 
CCCCCCC[C@@H](O)[C@H](O)CC#CC#C[C@H](O)c1ccccc1 [drawing 244] |  |  | IC50 [2]: 5.96 µM
CC1=C[C@@H]2OC[C@@H]3C[C@@]4(O)C[C@]3(C)[C@]2(CC1)CO4 [Compound 34] | None |  | IC50 [3, 4]: > 40 µM
CCCCCCC[C@H]1OC(C)(C)O[C@@H]1Cc1c[nH]nn1 [drawing 250] |  |  | IC50 [3, 5]: 35 µM
CCCCCCC[C@H]1OC(C)(C)O[C@@H]1CC#CC(O)CC (some centres unmarked) [drawing 251] |  |  | IC50 [3, 5]: 25 µM
C=CC(O)c1ccc(C[C@H]2OC(C)(C)O[C@@H]2CCCCCCC)cc1 (some centres unmarked) [Compound 15] | None | ~40 | 
CCCCCCC[C@@H](O)[C@H](O)CC#CC#CC(O)/C=C/c1ccccc1 (some centres unmarked) [drawing 243] |  |  | IC50 [2]: 9.46 µM
O=C1NC2(CCCCC2)C(=O)N2CCC[C@@H]12 [Compound 26] | None |  | 
CCCCCCC[C@H]1OC(C)(C)O[C@@H]1Cc1nnn(Cc2ccccc2)c1C(O)CC (some centres unmarked) [drawing 249] |  |  | IC50 [3, 5]: 35 µM
CCCCCCC[C@@H](O)[C@H](O)CC#CC#CC[C@H](O)[C@@H](O)CCCCCCC [analog 2] | None |  | IC50 [3, 4]: ~25 µM
C=C[C@H](C#CC#CC[C@H]1OC(C)(C)O[C@@H]1CCCCCCC)OC(C)=O [Compound 4] |  | > 40 | fold induction at 20 µM [1, 7]: 1.5
CCCCCCC[C@H]1OC(C)(C)O[C@@H]1CC#CC#C/C=C/CO [analog 9] | None |  | 
CCCCCCC[C@H]1OC(C)(C)O[C@@H]1Cc1ccc(C(O)CC)cc1 (some centres unmarked) [drawing 248] |  |  | IC50 [2]: 4.18 µM
CCCCCCC[C@H]1OC(C)(C)O[C@@H]1Cc1c[nH]nn1 [Compound 12] | None | ~35 | 
CCCCCCC[C@@H](O)[C@H](O)CC#CC#CCO |  |  | IC50 [2]: 5.57 µM
C=C[C@@](C)(O)C#CC#CC[C@H]1OC(C)(C)O[C@@H]1CCCCCCC [analog 8] | None |  | 
CCCCCCC[C@H]1OC(C)(C)O[C@@H]1CC#CC(O)CC (some centres unmarked) [Compound 10] | None | ~25 | 
C=C[C@H](O)C#CC#CC[C@H](O)[C@@H](O)CCCCCCC [Compound 16] |  |  | EC50 ([1]; Homo sapiens): ~3.5 µM; fold induction at 5 µM [1, 7]: 2.3; IC50 [3, 4]: ~12 µM

SMILES | Fold induction of AKR1C2 and AKR1C3 in IMR-32 cells (result in words) [1] | IC50 [3, 6] [µM] | other results
C=C[C@@H](O)C#CC#CC[C@@H](O)[C@H](O)CCCCCCC [Compound 1] |  |  | fold induction at 20 µM [1, 7]: 2; IC50 [3, 4]: > 40 µM
CCCCCCC[C@H]1OC(C)(C)O[C@@H]1CC#CC#C[C@H](O)c1ccccc1 [drawing 245] |  |  | IC50 [2]: 2.49 µM
C=C[C@H](C#CC#CC[C@H]1OC(C)(C)O[C@@H]1CCCCCCC)OC [Compound 7] | None |  | 
C=C[C@H](O)C#CC#CC[C@@H]1OC(C)(C)O[C@H]1CCCCCCC [Compound 17] |  | ~5 | 
CCCCCCC[C@H]1OC(C)(C)O[C@@H]1Cc1ccc(C=O)cc1 [drawing 246] |  |  | IC50 [2]: 12.6 µM
C[C@@]12COC(=O)[C@]1(C)[C@@H]1O[C@]3(C)[C@@H](O)C[C@]24OC(=O)CC134 (some centres unmarked) [Compound 31] | None |  | IC50 [3, 4]: > 40 µM
CCCCCCC[C@H]1OC(C)(C)O[C@@H]1Cc1ccc(C(O)CC)cc1 (some centres unmarked) [Compound 14] | None | ~40 | 
C=C1CO[C@H]2[C@@H]3C(=O)C[C@@H](C(C)C)[C@]3(C)C[C@H]3OC(=O)C[C@@]3(C)[C@@]12O [Compound 35] | None | > 50 | 
CCCCCCC[C@H]1OC(C)(C)O[C@@H]1Cc1ccc(C=O)cc1 [Compound 13] | None | ~30 | 
CCCCCCC[C@H]1OC(C)(C)O[C@@H]1CC#CC#C/C=C/C(OC)c1ccccc1 (some centres unmarked) [Example 25] | None | ~32.5 | 
CCCCCCC[C@@H](O)[C@H](O)CC#CC#C[C@H](O)c1ccccc1 | None |  | IC50 ([3]; listed as 19; read-out: 50% toxicity in IMR-32 cells): > 40 µM
CC12COC3(O)C4O[C@H]5CCC1(O)C45CC(O)C32C (mixture of isomers) [Compound 33] | None |  | IC50 [3, 4]: > 40 µM
CCCCCCC[C@H]1OC(C)(C)O[C@@H]1CC#CC#CC(=O)CC [Compound 5] | None |  | 
CCCCCCC[C@H]1OC(C)(C)O[C@@H]1CC#CC#C[C@H](O)c1ccccc1 [Example 20] | None | ~10 | 
C=C[C@H](O)C#CC#CC[C@H]1OC(C)(C)O[C@@H]1CCCCCCC [Example 21] |  | ~4 | fold induction at 1 µM [1, 7]: 1.4
CCCCCCC[C@@H](O)[C@H](O)CC#CC#C[C@H](O)c1ccccc1 [Example 24, (1R,7R,8R)-1-phenyl-2,4-pentadecadiyne-1,7,8-triol] |  |  | EC50 ([1]; Homo sapiens): ~3.5 µM; fold induction at 5 µM [1, 7]: 1.5; IC50 ([3]; read-out: 50% toxicity in IMR-32 cells): ~8 µM
C=C[C@H](O)C#CC#CC[C@H](O)[C@@H](O)CCCCCCC [drawing 241] |  |  | IC50 [2]: 2.69 µM
C=CC(O)c1ccc(C[C@H]2OC(C)(C)O[C@@H]2CCCCCCC)cc1 (some centres unmarked) [drawing 247] |  |  | IC50 [2]: 5.25 µM
